Like-named read-outs stand apart in the source and are kept apart here.
Key:
[1] = tested on: Human glioblastoma U87MG cells; assay: Anti-proliferation (total cell counts) in bellows cell culture system with pharmacodynamic modeling; assay type: cell-based; details: for decrease in cell counts compared with untreated control cells: 7-d treatment; for IC50: Homo sapiens, U-87 MG, nano-tetrac IC50 are hypothetical concentrations assuming all bound tetrac is available
Procedure: Each cell culture system is a compressible (bellows) 500 mL bottle which contains cell culture medium and specially-treated polymer flakes to which cells spontaneously attach and grow. Through moving bellows and porous membranes, the level of the medium in the bottle changes periodically. Consequently, the cells are alternately submerged in the culture medium, then exposed to 5% CO2/95% air which creates a dynamic interface between air and medium on the cell surface that maximizes nutrient uptake and oxygen transfer. The system provides a low shear, high aeration and foam-free culture environment. Proprietary treatment of the surfaces of the flakes enables seating and harvesting of cells and secreted proteins are readily isolated from the perfusate.
In a non-perfusion bellows cell culture system that was also used, the medium in each bottle was replaced by fresh medium every 24 h. In the perfusion bellows cell culture system, medium was progressively refreshed over 24 h, i.e., one complete change of medium occurred over 24 h.
In establishing the system, 5×10^7 cells were seeded in perfusion and non-perfusion bellows bottles and incubated overnight at 37° C. After that, flakes were harvested, trypsinized and cells were collected. Cell numbers were counted. The numbers of cells that attached to were 10-15×10^6 per bottle. For experiments, the perfusion bellows cell culture system was run for 2 d prior to starting experiments. The cell numbers at this point were about 30-50×10^6 cells/bottle. Cell cultures were then exposed to 1% FBS-containing medium. Tetrac or nano-tetrac was added to the medium in the reservoir bottle to achieve the final concentrations reported for each experiment.
The time course of cell counts of the various cancer lines treated with different concentrations of tetrac or nano-tetrac was modeled by utilizing the pooled approach in NONMEM VI (version 6.2). All time points and treatment arms within each experiment were modeled simultaneously. A mechanism-based model (see Bulitta et al., 2009. Antimicrob. Agents Chemother. 53:46-56) was adapted to describe the proliferation of cancer cells and the inhibition of proliferation by tetrac. This model assumes two populations of cells in different phases of the cell cycle: cells that are preparing for replication (phase 1) and cells that are immediately “pre-replication” (phase 2). Cells transition from phase 1 to phase 2 by a first-order growth rate constant, while replication from phase 2 to phase 1 is assumed to be fast (see FIG. 2).
[formula] [formula] [formula] where C1 is the number of cells in phase 1, C2 the number of cells in phase 2, k21 the first order rate constant for replication (transition from phase 2 to phase 1), and k12 the first-order growth rate constant for transition from phase 1 to phase 2. The total number of cells Ct is the sum of C1 and C2. Rep is the replication efficiency factor which is described by:
[formula] where Cmax is the maximum number of cells. Without tetrac, the replication efficiency factor approaches 2, which reflects a 100% probability of successful replication. InhR describes the inhibitory effect of tetrac on the probability of successful replication:
[formula] Where ImaxR is the maximum effect of tetrac on probability of successful replication and IC50R is the tetrac concentration needed to achieve a half-maximal effect. Inhk describes the inhibitory effect of tetrac on the rate of growth:
[formula] Where Imaxk is the maximum effect of tetrac on rate of growth and IC50k is the tetrac concentration needed to achieve a half-maximal effect. Results

[2] = Turnover rate (stability) of tetrac in the culture system; assay type: physicochemical
Procedure: In LC/MS/MS experiments, medium samples (20 μL) were injected onto an HP 1100 series HPLC system (Agilent Technologies, Palo Alto, Calif., USA), equipped with a narrow-bore column Zorbax Eclipse XDB-C18 (5 μm, 150×2.1 mm; Agilent). Separation was performed using a mobile phase of 0.1% (v/v) acetic acid (A) and 100% acetonitrile (B), with a linear gradient of 20-60% B over 25 min. Flow rate was maintained at 0.2 mL min^−1 and elution was monitored by a diode array detector (200-600 nm). The LC effluent was then introduced into a turbo ion-spray source on a Q/STAR-XL quadruple/time-of-flight (TOF) hybrid mass spectrometer (Applied Biosystems, Foster City, Calif., USA). Negative ESI mass spectra were acquired over the range from m/z 100 to 400. The electrospray voltage was set at −4.5 kV and the source temperature was maintained at 475° C. […]
Human glioblastoma U87MG cells were treated with different concentrations of tetrac (10^−9-10^−5M) for 7 d and tetrac was replenished daily. The turnover rate of tetrac in the culture system was measured. Tetrac detected was 75% of the original concentration after 24 h incubation in medium with 10% FBS in the absence of cells at both room temperature and 37° C. […]

MDA-MB cells = assay: Apoptosis by flow cytometry (FACS) in perfusion bellows culture; assay type: cell-based, human; details: for induced apoptosis compared to untreated control: day 2
Procedure: MDA-MB cells grown in perfusion bellows cell culture were treated with different concentrations of tetrac (10^−7 M to 10^−5 M) daily. Cells were harvested on the day indicated. Two million cells of each sample were prepared for flow cytometry. Flow cytometry was conducted as described in Example 1, infra.
Cells were harvested from flakes by trypsinization, washed with PBS and were resuspended in 200 μL PBS (1×10^5-1×10^6 cells). To quantify cellular DNA content, cells were permeabilized by fixation with 70% ethanol for 30 min at 4° C. Samples can be stored in 70% ethanol at −20° C. for several weeks prior to propidium iodide (PI) staining and flow cytometric analysis. If cellular DNA quantification was performed on the same day of cell harvest, the cells were washed after permeabilization in PBS and resuspended in 500 μL PBS. Then 2.5 μL RNase (DNase-free) was added to the cell suspension and incubation was carried out at 37° C. for 30 min. The cell suspension was chilled on ice to 4° C. and 50 μL propidium iodide (PI) was added to the cell suspension. Samples were then kept in the dark at room temperature for 30 min, after which they were subjected to flow cytometry. Samples were analyzed on FACSCalibur™ (Becton Dickinson), using CellQuest software to determine DNA content. Fluorescence-activated cell sorting (FACS) analysis was performed using Annexin V-FITC and PI. The relative percentages of cells in G1, S, or G2/M phase were calculated from FL-2 histograms using ModFit LT software.
Cells were harvested for FACS analysis 1-5 d after treatment with 10^−7 to 10^−5 M tetrac. […] (See FIG. 7). By day 2, tetrac, 10^−7M and 10^−6M, induced apoptosis by 2.5-fold as compared to untreated control. Similar results were obtained after 4 d of treatment of tetrac. […] (See FIG. 7).

[3] = U87MG, model parameter estimate

IC50 ([1]; U87MG, model parameter estimate, read-out: IC50R (effect on success of replication)): 47.4 µM | IC50 ([1]; U87MG, model parameter estimate, read-out: IC50k (effect on rate of growth)): 0.047 µM | Tetrac detected, % of the original concentration ([2]; 24 h incubation in medium with 10% FBS, absence of cells, room temperature and 37° C.): 75% | tetrac decay ([2]; incubated with cell cultures at 37° C.): 12%
SMILES: O=C(O)Cc1cc(I)c(Oc2cc(I)c(O)c(I)c2)c(I)c1 [tetrac, Tetraiodothyroacetic acid]
decrease in cell counts compared with untreated control cells ([1]; 10^−7 M): > 28% | decrease in cell counts compared with untreated control cells ([1]; 10^−8 M): more than 15% | ImaxR (maximum effect on success of replication) [1, 3]: 0.92 | Imaxk (maximum effect on rate of growth) [1, 3]: 0.57 | increase of apoptotic cells compared to untreated control cells (MDA-MB cells; 10^−5 M, 1 d): 10 fold | induced apoptosis compared to untreated control (MDA-MB cells; 10^−6M): 2.5 fold | induced apoptosis compared to untreated control (MDA-MB cells; 10^−7M): 2.5 fold

From patent US9180107B2 (NANOPHARMACEUTICALS LLC, priority 2009, dated 2015)
